Measured values reported in patent US8710043B2, “TRPM8 antagonists and their use in treatments” (Amgen Inc., priority 2011, dated 2014).
Where a name gives a salt, the structure may show the parent alone.

What follows are compounds tested against T1, human TRPM8 (Homo sapiens, UniProt Q7Z2W7) (assay: Luminescence readout assay for measuring intracellular calcium, icilin activation). Settings: CHO cells expressing human TRPM8, aequorin luminescence, 1 μM icilin activation; read-out: hTRPM8 IC50.
T1 construct: expressed in transfected cells; host or cells: Chinese hamster ovary (CHO) cells, T-REx tetracycline-inducible system, co-transfected with aequorin
T1 sequence (Q7Z2W7 whole entry): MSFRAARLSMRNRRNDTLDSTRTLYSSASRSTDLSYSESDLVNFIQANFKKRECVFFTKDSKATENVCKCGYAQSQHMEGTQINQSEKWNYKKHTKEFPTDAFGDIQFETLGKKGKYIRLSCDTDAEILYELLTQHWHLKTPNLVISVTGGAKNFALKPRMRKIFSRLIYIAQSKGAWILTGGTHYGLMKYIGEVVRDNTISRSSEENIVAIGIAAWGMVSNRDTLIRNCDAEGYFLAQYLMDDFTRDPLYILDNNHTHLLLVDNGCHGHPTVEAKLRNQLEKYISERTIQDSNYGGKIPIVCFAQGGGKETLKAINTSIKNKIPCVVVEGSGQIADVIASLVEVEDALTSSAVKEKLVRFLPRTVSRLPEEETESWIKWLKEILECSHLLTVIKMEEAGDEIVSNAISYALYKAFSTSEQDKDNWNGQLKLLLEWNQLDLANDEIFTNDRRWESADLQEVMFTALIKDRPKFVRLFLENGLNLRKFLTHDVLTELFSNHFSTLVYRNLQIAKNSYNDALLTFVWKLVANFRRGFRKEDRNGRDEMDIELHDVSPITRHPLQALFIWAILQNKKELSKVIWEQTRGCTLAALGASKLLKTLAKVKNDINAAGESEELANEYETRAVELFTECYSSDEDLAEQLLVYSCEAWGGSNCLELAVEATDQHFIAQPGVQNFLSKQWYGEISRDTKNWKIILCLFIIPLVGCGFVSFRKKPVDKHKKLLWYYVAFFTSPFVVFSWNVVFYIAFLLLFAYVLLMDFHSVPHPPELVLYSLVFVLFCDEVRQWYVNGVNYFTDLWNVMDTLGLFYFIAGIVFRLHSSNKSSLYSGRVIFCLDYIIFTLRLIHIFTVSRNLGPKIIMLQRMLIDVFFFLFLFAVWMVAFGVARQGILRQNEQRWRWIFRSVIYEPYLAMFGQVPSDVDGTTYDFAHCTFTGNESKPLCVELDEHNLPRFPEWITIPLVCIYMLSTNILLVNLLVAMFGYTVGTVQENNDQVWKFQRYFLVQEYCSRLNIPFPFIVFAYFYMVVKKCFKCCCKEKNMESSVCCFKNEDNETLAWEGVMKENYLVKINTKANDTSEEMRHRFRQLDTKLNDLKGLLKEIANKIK
Format: cell-based
Summary of the method: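 The read-out was luminescence reporting intracellular calcium, recorded by a CCD-based luminometer. Compounds were preincubated for 2.5 min before agonist challenge with 1 μM icilin. Human TRPM8 was expressed in a stable T-REx CHO line, induced with 0.5 μg/mL tetracycline the day before.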

| Compound | IC50 [nM] |
| --- | --- |
| COC(=O)c1ccc(C(=O)N[C@@H](c2ccc(OC(F)(F)F)c(F)c2)c2ccccn2)nc1 [Example 406, (S)-methyl 6-(((3-fluoro-4-(trifluoromethoxy)phenyl)(pyridin-2-yl)methyl)carbamoyl)nicotinate] | 241 |
| O=C(N[C@@H](c1ccc(OC(F)(F)F)c(F)c1)c1ncccc1F)c1ccc(=O)n(C[C@H](O)C(F)(F)F)c1 [Example 408, N-((S)-(3-fluoro-4-(trifluoromethoxy)phenyl)(3-fluoropyridin-2-yl)methyl)-6-oxo-1-((S)-3,3,3-trifluoro-2-hydroxypropyl)-1,6-dihydropyridine-3-carboxamide] | 78.1 |
| O=C(N[C@@H](c1ccc(OC(F)(F)F)c(F)c1)c1ncccc1F)c1ccc(=O)n(C[C@@H](O)C(F)(F)F)c1 [Example 409, N-((S)-(3-fluoro-4-(trifluoromethoxy)phenyl)(3-fluoropyridin-2-yl)methyl)-6-oxo-1-((R)-3,3,3-trifluoro-2-hydroxypropyl)-1,6-dihydropyridine-3-carboxamide] | 89.2 |
| Cc1ccc(F)c([C@@H](NC(=O)c2ccc(=O)[nH]c2)c2ccc(C(F)(F)F)cc2)n1 [Example 410, (S)-N-((3-fluoro-6-methylpyridin-2-yl)(4-(trifluoromethyl)phenyl)methyl)-6-oxo-1,6-dihydropyridine-3-carboxamide] | 71.8 |
| O=C(NC(c1ccc(F)cc1)c1ccc(OC(F)(F)F)c(F)c1)c1ccc(=O)[nH]c1 (stereo not shown) [Example 411, N-((3-fluoro-4-(trifluoromethoxy)phenyl)(4-fluorophenyl)methyl)-6-oxo-1,6-dihydropyridine-3-carboxamide] | 140 |
| O=C(NC(c1ccc(OC(F)(F)F)c(F)c1)c1cccc(F)c1F)c1ccc(=O)[nH]c1 (stereo not shown) [Example 412, N-((2,3-difluorophenyl)(3-fluoro-4-(trifluoromethoxy)phenyl)methyl)-6-oxo-1,6-dihydropyridine-3-carboxamide] | 48 |
| O=C(NC(c1ccc(OC(F)(F)F)c(F)c1)c1ccc(F)cc1F)c1ccc(=O)[nH]c1 (stereo not shown) [Example 413, N-((2,4-difluorophenyl)(3-fluoro-4-(trifluoromethoxy)phenyl)methyl)-6-oxo-l,6-dihydropyridine-3-carboxamide] | 197 |
| O=C(NC(c1ccc(OC(F)(F)F)c(F)c1)c1cc(F)ccc1F)c1ccc(=O)[nH]c1 (stereo not shown) [Example 414, N-((2,5-difluorophenyl)(3-fluoro-4-(trifluoromethoxy)phenyl)methyl)-6-oxo-1,6-dihydropyridine-3-carboxamide] | 150 |
| O=C(NC(c1cccc(F)c1)c1ccc(OC(F)(F)F)c(F)c1)c1ccc(=O)[nH]c1 (stereo not shown) [Example 417, N-((3-fluoro-4-(trifluoromethoxy)phenyl)(3-fluorophenyl)methyl)-6-oxo-1,6-dihydropyridine-3-carboxamide] | 83 |
| O=C(NC(c1ccc(OC(F)(F)F)c(F)c1)c1c(F)cccc1F)c1ccc(=O)[nH]c1 (stereo not shown) [Example 418, N-((2,6-difluorophenyl)(3-fluoro-4-(trifluoromethoxy)phenyl)methyl)-6-oxo-1,6-dihydropyridine-3-carboxamide] | 65 |
| COc1cccc(C(NC(=O)c2ccc(=O)[nH]c2)c2ccc(OC(F)(F)F)c(F)c2)n1 (stereo not shown) [Example 420, N-((3-fluoro-4-(trifluoromethoxy)phenyl)(6-methoxypyridin-2-yl)methyl)-6-oxo-1,6-dihydropyridine-3-carboxamide] | 118 |
| COc1ccc(C(NC(=O)c2ccc(=O)[nH]c2)c2ccc(OC(F)(F)F)c(F)c2)nc1 (stereo not shown) [Example 421] | 611 |
| COc1ccnc(C(NC(=O)c2ccc(=O)[nH]c2)c2ccc(OC(F)(F)F)c(F)c2)c1 (stereo not shown) [Example 422, N-((3-fluoro-4-(trifluoromethoxy)phenyl)(4-methoxypyridin-2-yl)methyl)-6-oxo-1,6-dihydropyridine-3-carboxamide] | 841 |
| Cc1ccnc(C(NC(=O)c2ccc(=O)[nH]c2)c2ccc(OC(F)(F)F)c(F)c2)c1 (stereo not shown) [Example 423, N-((3-fluoro-4-(trifluoromethoxy)phenyl)(4-methylpyridin-2-yl)methyl)-6-oxo-1,6-dihydropyridine-3-carboxamide] | 137 |
| Cc1ccc(C(NC(=O)c2ccc(=O)[nH]c2)c2ccc(OC(F)(F)F)c(F)c2)nc1 (stereo not shown) [Example 424, N-((3-fluoro-4-(trifluoromethoxy)phenyl)(5-methylpyridin-2-yl)methyl)-6-oxo-1,6-dihydropyridine-3-carboxamide] | 92 |
| O=C(O)Cn1cc(C(=O)N[C@@H](c2ccc(C(F)(F)F)cc2)c2ncccc2F)ccc1=O [Example 429, (S)-2-(5-(((3-Fluoropyridin-2-yl)(4-(trifluoromethyl)phenyl)methyl)carbamoyl)-2-oxopyridin-1(2H)-yl)acetic Acid] | 2660 |
| CCc1cccnc1[C@@H](NC(=O)c1ccc(=O)[nH]c1)c1ccc(C(F)(F)F)cc1 [Example 430, (S)—N-((3-Ethylpyridin-2-yl)(4-(trifluoromethyl)phenyl)methyl)-6-oxo-1,6-dihydropyridine-3-carboxamide] | 12.4 |
| CC(=O)Oc1ccc(C(=O)N[C@@H](c2ccc(C(F)(F)F)cc2)c2ncccc2F)cc1N [Example 431, (S)-2-Amino-4-(((3-fluoropyridin-2-yl)(4-(trifluoromethyl)phenyl)methyl)carbamoyl)phenyl Acetate] | 56.4 |

Further lines, results first:

| IC50 [nM] | Compound |
| --- | --- |
| 189 | COC(=O)c1ccc(C(=O)N[C@@H](c2ccc(OC(F)(F)F)c(F)c2)c2ncccc2F)nc1 [Example 398, (S)-methyl 6-(((3-fluoro-4-(trifluoromethoxy)phenyl)(3-fluoropyridin-2-yl)methyl)carbamoyl)nicotinate] |
| 16.5 | O=C(N[C@@H](c1ccc(OC(F)(F)F)c(F)c1)c1ncccc1F)c1ccc(=O)n(C(F)F)c1 [Example 399, (S)-1-(difluoromethyl)-N-((3-fluoro-4-(trifluoromethoxy)phenyl)(3-fluoropyridin-2-yl)methyl)-6-oxo-1,6-dihydropyridine-3-carboxamide] |
| 6.9 | O=C(N[C@@H](c1ccc(OC(F)(F)F)c(F)c1)c1ncccc1F)c1c[nH]c(=O)c(F)c1 [Example 400, (S)-5-fluoro-N-((3-fluoro-4-(trifluoromethoxy)phenyl)(3-fluoropyridin-2-yl)methyl)-6-oxo-1,6-dihydropyridine-3-carboxamide] |
| 12.8 | O=C(N[C@@H](c1ccc(OC(F)(F)F)c(F)c1)c1ncccc1F)c1c[nH]c(=O)c(Cl)c1 [Example 401, (S)-5-chloro-N-((3-fluoro-4-(trifluoromethoxy)phenyl)(3-fluoropyridin-2-yl)methyl)-6-oxo-1,6-dihydropyridine-3-carboxamide] |
| 120 | O=C(N[C@@H](c1ccc(OC(F)(F)F)c(F)c1)c1ncccc1F)c1c[nH]c(=O)c(C(F)(F)F)c1 [Example 402, (S)-N-((3-fluoro-4-(trifluoromethoxy)phenyl)(3-fluoropyridin-2-yl)methyl)-6-oxo-5-(trifluoromethyl)-1,6-dihydropyridine-3-carboxamide] |
| 17.8 | Cc1cc(C(=O)N[C@@H](c2ccc(OC(F)(F)F)c(F)c2)c2ncccc2F)c[nH]c1=O [Example 403, (S)-N-((3-fluoro-4-(trifluoromethoxy)phenyl)(3-fluoropyridin-2-yl)methyl)-5-methyl-6-oxo-1,6-dihydropyridine-3-carboxamide] |
| 3550 | COc1ccc(C(=O)N[C@@H](c2ccc(OC(F)(F)F)c(F)c2)c2ncccc2F)[nH]c1=O [Example 404, (S)-N-((3-fluoro-4-(trifluoromethoxy)phenyl)(3-fluoropyridin-2-yl)methyl)-5-methoxy-6-oxo-1,6-dihydropyridine-2-carboxamide] |
| 59.6 | O=C(N[C@@H](c1ccc(OC(F)(F)F)c(F)c1)c1ncccc1F)c1ccc(=O)n(CC2(O)CC2)c1 [Example 407, (S)-N-((3-fluoro-4-(trifluoromethoxy)phenyl)(3-fluoropyridin-2-yl)methyl)-1-((1-hydroxycyclopropyl)methyl)-6-oxo-1,6-dihydropyridine-3-carboxamide] |
| 648 | O=C(O)c1cccc(C(=O)N[C@@H](c2ccc(OC(F)(F)F)c(F)c2)c2ncccc2F)n1 [Example 415, (S)-6-(((3-fluoro-4-(trifluoromethoxy)phenyl)(3-fluoropyridin-2-yl)methyl)carbamoyl)picolinic acid trifluoroacetate] |
| 54 | O=C(N[C@@H](c1ccc(OC(F)(F)F)c(F)c1)c1ncccc1F)c1ccc[nH]c1=O [Example 416, (S)-N-((3-fluoro-4-(trifluoromethoxy)phenyl)(3-fluoropyridin-2-yl)methyl)-2-oxo-1,2-dihydropyridine-3-carboxamide] |
| 10.5 | O=C(N[C@@H](c1ccc(OC(F)(F)F)c(F)c1)c1ncccc1F)c1ccc2oc(=O)[nH]c2n1 [Example 425, (S)—N-((3-Fluoro-4-(trifluoromethoxy)phenyl)(3-fluoropyridin-2-yl)methyl)-2-oxo-2,3-dihydrooxazolo[4,5-b]pyridine-5-carboxamide] |
| 14 | O=C(N[C@@H](c1ccc(OC(F)(F)F)c(F)c1)c1ncccc1F)c1cnc2[nH]c(=O)oc2c1 [Example 427, (S)—N-((3-Fluoro-4-(trifluoromethoxy)phenyl)(3-fluoropyridin-2-yl)methyl)-2-oxo-2,3-dihydrooxazolo[4,5-b]pyridine-6-carboxamide] |
| 1290 | O=C(O)Cn1cc(C(=O)N[C@@H](c2ccc(OC(F)(F)F)c(F)c2)c2ncccc2F)ccc1=O [Example 428, (S)-2-(5-(((3-Fluoro-4-(trifluoromethoxy)phenyl)(3-fluoropyridin-2-yl)methyl)carbamoyl)-2-oxopyridin-1(2H)-yl)acetic Acid] |
